Source: patent publication US8796324B2, “Substituted 2-acetamido-5-aryl-1,2,4-triazolones and use thereof” (Bayer Intellectual Property GmbH, priority 2009, dated 2014)
pIC50: −log10 of the molar value.

How the values were obtained:
human V1a receptor = biological target: T1, human V1a receptor (Homo sapiens, UniProt P37288); test: Cellular in vitro assay for determining the vasopressin receptor activity (aequorin luminescence); type: cell-based; conditions: CHO cell line transfected with the human V1a receptor; agonist [Arg8]-vasopressin; read-out: IC50 hV1a
T1 construct: expressed in transfected cells; host or cells: CHO K1 (constitutively expressing modified aequorin)
T1 sequence (P37288 whole entry): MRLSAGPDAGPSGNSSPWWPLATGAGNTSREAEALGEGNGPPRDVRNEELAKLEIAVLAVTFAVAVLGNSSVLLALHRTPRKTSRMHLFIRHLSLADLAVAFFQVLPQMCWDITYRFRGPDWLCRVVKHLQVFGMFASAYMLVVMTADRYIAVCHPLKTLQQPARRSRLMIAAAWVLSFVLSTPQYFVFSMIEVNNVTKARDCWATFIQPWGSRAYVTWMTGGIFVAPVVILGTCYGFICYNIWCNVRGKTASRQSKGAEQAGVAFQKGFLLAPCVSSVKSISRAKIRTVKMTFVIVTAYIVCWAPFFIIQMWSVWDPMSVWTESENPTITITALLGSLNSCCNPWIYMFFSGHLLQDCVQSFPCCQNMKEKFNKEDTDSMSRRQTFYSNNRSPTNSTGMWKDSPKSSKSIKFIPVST
Description: (§1) B-1. Cellular In Vitro Assay for Determining the Vasopressin Receptor Activity
(§2) The identification of agonists and antagonists of the V1a and V2 vasopressin receptors from humans and rats and also the quantification of the activity of the substances described here took place using recombinant cell lines. These cells derive originally from a hamster ovary epithelial cell (Chinese Hamster Ovary, CHO K1, ATCC: American Type Culture Collection, Manassas, Va. 20108, USA). The test cell lines constitutively express a modified form of the calcium-sensitive photoprotein aequorin, which, after reconstitution with the cofactor coelenterazine, emits light when there are increases in the free calcium concentration (Rizzuto R., Simpson A. W., Brini M., Pozzan T.; Nature 358 (1992) 325-327). In addition, the cells are stably transfected with the human or rat V1a or V2 receptors. In the case of the Gs-coupling V2 receptors, the cells are stably transfected with a further gene, which codes for the promiscuous Gα16 protein (Amatruda T. T., Steele D. A., Slepak V. Z., Simon M. I., Proc. Nat. Acad. Sci. USA 88 (1991), 5587-5591), either independently or as a fusion gene. The resulting vasopressin receptor test cells react to stimulation of the recombinantly expressed vasopressin receptors by intracellular release of calcium ions, which can be quantified by the resulting aequorin luminescence using a suitable luminometer (Milligan G., Marshall F., Rees S., Trends in Pharmaco. Sci. 17 (1996) 235-237).
(§3) On the day before the assay, the cells are plated out in culture medium (DMEM, 10% FCS, 2 mM glutamine, 10 mM HEPES) in 384-well microtiter plates and kept in a cell incubator (96% humidity, 5% v/v carbon dioxide, 37° C.). On the day of the assay, the culture medium is replaced by a Tyrode solution (140 mM sodium chloride, 5 mM potassium chloride, 1 mM magnesium chloride, 2 mM calcium chloride, 20 mM glucose, 20 mM HEPES), which additionally contains the cofactor coelenterazine (50 μM), and the microtiter plate is then incubated for a further 3-4 hours. The test substances in various concentrations are placed for 10 to 20 minutes in the wells of the microtiter plate before the agonist [Arg8]-vasopressin is added, and the resulting light signal is measured immediately in the luminometer. The IC50 values are calculated using the GraphPad PRISM computer program (Version 3.02).
(§4) The table below lists representative IC50 values for the compounds of the invention on the cell line transfected with the human V1a or V2 receptor: […]

human V2 receptor = biological target: T2, human V2 receptor (Homo sapiens, UniProt P30518); test: as above; type: cell-based; conditions: CHO cell line transfected with the human V2 receptor (and Gα16); agonist [Arg8]-vasopressin; read-out: IC50 hV2
T2 construct: expressed in transfected cells; host or cells: CHO K1 (constitutively expressing modified aequorin; co-transfected with promiscuous G-alpha-16)
T2 sequence (P30518 whole entry): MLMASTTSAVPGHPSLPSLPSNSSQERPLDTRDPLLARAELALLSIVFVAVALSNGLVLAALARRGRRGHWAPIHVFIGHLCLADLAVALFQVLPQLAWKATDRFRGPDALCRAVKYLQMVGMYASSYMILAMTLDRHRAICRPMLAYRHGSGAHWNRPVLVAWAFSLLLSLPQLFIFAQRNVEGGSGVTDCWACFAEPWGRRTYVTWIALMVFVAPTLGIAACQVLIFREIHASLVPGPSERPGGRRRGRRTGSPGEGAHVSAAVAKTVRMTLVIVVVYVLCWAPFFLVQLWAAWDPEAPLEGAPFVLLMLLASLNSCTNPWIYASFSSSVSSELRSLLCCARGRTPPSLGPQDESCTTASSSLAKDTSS
Description: as §1, §2, §3, §4

Row | Structure (SMILES) | pIC50 (human V1a receptor) | pIC50 (human V2 receptor)
1 | O=C(Cn1nc(-c2ccc(Cl)cc2)n(CC2CCCCC2)c1=O)NC(CO)c1cccc(Cl)c1F (stereo not shown) [Example 182] | 6.52 | 7.55
2 | O=C(Cn1nc(-c2ccc(Cl)s2)n(Cc2ccccc2F)c1=O)NC(CO)c1cccc(F)c1F (stereo not shown) [Example 185] | 7.26 | 7.35

Continued by rising pIC50 (human V1a receptor), values first:

Row | pIC50 (human V1a receptor) | pIC50 (human V2 receptor) | Structure (SMILES)
3 | 7.14 | 7.58 | O=C(Cn1nc(-c2ccc(Cl)cc2)n(Cc2ccccc2F)c1=O)NC(CO)c1cccc(F)c1F (stereo not shown) [Example 184]
4 | 8.09 | 8.00 | COc1ccccc1C(CCOC(N)=O)NC(=O)Cn1nc(-c2ccc(Cl)cc2)n(C[C@H](O)C(F)(F)F)c1=O (stereo partly drawn) [Example 188, 3-[({3-(4-Chlorophenyl)-5-oxo-4-[(2S)-3,3,3-trifluoro-2-hydroxypropyl]-4,5-dihydro-1H-1,2,4-triazol-1-yl}acetyl)amino]-3-(2-methoxyphenyl)propyl carbamate]
5 | 8.48 | 7.00 | NC(=O)OCC(NC(=O)Cn1cc(-c2ccc(Cl)cc2)n(CC(O)C(F)(F)F)c1=O)c1ccccc1C(F)(F)F (stereo not shown) [Example 207, 2-({[4-(4-Chlorophenyl)-2-oxo-3-(3,3,3-trifluoro-2-hydroxypropyl)-2,3-dihydro-1H-imidazol-1-yl]acetyl}amino)-2-[2-(trifluoromethyl)phenyl]ethyl carbamate]
